Measurements reported in ChEMBL document CHEMBL1687721, “New drugs against tuberculosis: problems, progress, and evaluation of agents in clinical development” (Antimicrob Agents Chemother, 2009).
Converted amounts (≈) assume the structure as drawn.

What was measured:
Type in all cases: functional
[1] = tested on: Mycobacterium tuberculosis; experiment: Antimicrobial activity against compound-resistant Mycobacterium tuberculosis
[2] = tested on: Mycobacterium tuberculosis; experiment: Antimicrobial activity against multiple drug-resistant Mycobacterium tuberculosis
[3] = tested on: Mycobacterium tuberculosis; experiment: Antimicrobial activity against rifampicin-resistant Mycobacterium tuberculosis

C[C@]1(COc2ccc(N3CCC(Oc4ccc(OC(F)(F)F)cc4)CC3)cc2)Cn2cc([N+](=O)[O-])nc2O1
MIC [1]: 0.006 µg/mL (≈ 0.0112 µM)

COc1nc2ccc(Br)cc2cc1[C@@H](c1ccccc1)[C@@](O)(CCN(C)C)c1cccc2ccccc12 [BEDAQUILINE]
MIC [2]: 0.03 µg/mL (≈ 0.054 µM)

COc1c(N2CCNC(C)C2)c(F)cc2c(=O)c(C(=O)O)cn(C3CC3)c12 (stereo unspecified) [GATIFLOXACIN]
MIC [3]: 0.2 µg/mL (≈ 0.533 µM)

O=[N+]([O-])c1cn2c(n1)OC[C@@H](OCc1ccc(OC(F)(F)F)cc1)C2 [PRETOMANID]
MIC [2]: 0.015 µg/mL (≈ 0.0418 µM)

CO[C@H]1/C=C/O[C@@]2(C)Oc3c(C)c(O)c4c(O)c(c(/C=N/N5CCN(C6CCCC6)CC5)c(O)c4c3C2=O)NC(=O)/C(C)=C\C=C\[C@H](C)[C@H](O)[C@@H](C)[C@@H](O)[C@@H](C)[C@H](OC(C)=O)[C@@H]1C [RIFAPENTINE]
MIC [3]: 0.02 µg/mL (≈ 0.0228 µM)

CC(C)=CCC/C(C)=C/CNCCNC1C2CC3CC(C2)CC1C3 (stereo unspecified) [SQ109]
MIC [1]: 0.16 µg/mL (≈ 0.484 µM)
